Measurements taken from patent publication US8580825B2, “Oxadiazole inhibitors of leukotriene production” (Boehringer Ingelheim International GmbH, priority 2010, dated 2013).

Columns and labels:
[1] = system: synthesis of LTB4 in human whole blood; assay: human whole blood LTB4 production inhibition assay; assay type: cell-based; settings: calcimycin stimulated, read-out: hWB LTB4 IC50
In short: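 Heparinized human whole blood was preincubated with compound for 15 min at 37° C, then stimulated with calcimycin (20 μM final, in PBS pH 7.4) for a further 30 min at 37° C. Plasma LTB4 was quantified by antibody-based homogeneous time-resolved fluorescence.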

[2] = target: T1, recombinant human FLAP protein (Homo sapiens, UniProt P20292); assay: FLAP binding assay (Scintillation Proximity Assay, displacement of [125I]L-691,831); settings: for IC50: read-out: FLAP SPA IC50
T1 construct: made in house; host or cells: Sf9 insect cells (100,000xg membrane fraction used)
T1 sequence (P20292 1-161): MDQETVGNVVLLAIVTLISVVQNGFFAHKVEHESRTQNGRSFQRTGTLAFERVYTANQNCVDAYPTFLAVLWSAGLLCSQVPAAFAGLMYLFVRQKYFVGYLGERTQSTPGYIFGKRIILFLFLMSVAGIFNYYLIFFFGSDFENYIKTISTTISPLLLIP
In short: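 Scintillation proximity displacement of [125I]L-691,831 (0.08 nM) from membranes of sf9 cells expressing recombinant human FLAP (5 μg/well) on WGA SPA beads, pH 7.5 Tris buffer. Plates shaken 2 h before counting. Non-specific binding defined with 10 μM unlabelled L-691,831.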

SMILES	IC50 [1] [nM]	IC50 [2] [nM]	inhibition at 1 µM ([2]; read-out: FLAP SPA inhibition at 1 uM) [%]
Cn1cc(-c2nc([C@](C)(c3ccc(-c4cnc(N)nc4)nc3)C3CC3)no2)cn1 [Example 58, 5-(5-{(1S)-1-cyclopropyl-1-[5-(1-methyl-1H-pyrazol-4-yl)-1,2,4-oxadiazol-3-yl]ethyl}pyridin-2-yl)pyrimidin-2-amine]	980	230	–
CC(C)[C@@](C)(c1ccc(-c2cnc(N)nc2)nc1)c1noc(-c2cnn(CC(=O)N(C)C)c2)n1 [Example 59, 2-[4-(3-{(2S)-2-[6-(2-aminopyrimidin-5-yl)pyridin-3-yl]-3-methylbutan-2-yl}-1,2,4-oxadiazol-5-yl)-1H-pyrazol-1-yl]-N,N-dimethylacetamide]	1800	450	–
CC(C)[C@](C)(c1ccc(-c2ccc(N)nc2)nc1)c1noc(-c2cnn(C)c2)n1 [Example 60, 5-{(2R)-3-methyl-2-[5-(1-methyl-1H-pyrazol-4-yl)-1,2,4-oxadiazol-3-yl]butan-2-yl}-2,3′-bipyridin-6′-amine]	17	3.4	–
CC(C)[C@](C)(c1ccc(-c2cnc(N)nc2)nc1)c1noc(-c2cnn(CC(=O)N(C)C)c2)n1 [Example 61, 2-[4-(3-{(2R)-2-[6-(2-aminopyrimidin-5-yl)pyridin-3-yl]-3-methylbutan-2-yl}-1,2,4-oxadiazol-5-yl)-1H-pyrazol-1-yl]-N,N-dimethylacetamide]	48	3	–
CC(C)C(C)(c1ccc(-c2cnc(N)nc2)nc1)c1noc(-c2ccc(I)cc2)n1 (centres unmarked) [Example 62, 5-(5-{2-[5-(4-iodophenyl)-1,2,4-oxadiazol-3-yl]-3-methylbutan-2-yl}pyridin-2-yl)pyrimidin-2-amine]	420	19.4	–
CC(c1ccc(-c2cnc(N)nc2)nc1)(c1noc(-c2cnn(C3COC3)c2)n1)C1CC1 (centres unmarked) [Example 63, 5-[5-(1-cyclopropyl-1-{5-[1-(oxetan-3-yl)-1H-pyrazol-4-yl]-1,2,4-oxadiazol-3-yl}-ethyl)pyridin-2-yl]pyrimidin-2-amine]	29	8.7	–
CC(c1ccc(-c2cnc(N)nc2)nc1)(c1noc(-c2cn[nH]c2)n1)C1CC1 (centres unmarked) [Example 64, 5-(5-{1-cyclopropyl-1-[5-(1H-pyrazol-4-yl)-1,2,4-oxadiazol-3-yl]ethyl}pyridin-2-yl)pyrimidin-2-amine]	80	6.3	–
C=C(CO)n1cc(-c2nc(C(C)(c3ccc(-c4cnc(N)nc4)nc3)C3CC3)no2)cn1 (centres unmarked) [Example 65, 2-[4-(3-{1-[6-(2-aminopyrimidin-5-yl)pyridin-3-yl]-1-cyclopropylethyl}-1,2,4-oxadiazol-5-yl)-1H-pyrazol-1-yl]prop-2-en-1-ol]	28	1.6	–
CN(C)C(=O)Cn1cc(-c2nc(C(C)(c3ccc(-c4cnc(N)nc4)nc3)C3CC3)no2)cn1 (centres unmarked) [Example 67, 2-[4-(3-{1-[6-(2-aminopyrimidin-5-yl)pyridin-3-yl]-1-cyclopropylethyl}-1,2,4-oxadiazol-5-yl)-1H-pyrazol-1-yl]-N,N-dimethylacetamide]	290	110	–
COCCn1cc(-c2nc(C(C)(c3ccc(-c4cnc(N)nc4)nc3)C3CC3)no2)cn1 (centres unmarked) [Example 68, 5-[5-(1-cyclopropyl-1-{5[1-(2-methoxyethyl)-1H-pyrazol-4-yl]-1,2,4-oxadiazol-3-yl}ethyl)pyridin-2-yl]pyrimidin-2-amine]	80	24	–
CC(C)C(C)(c1ccc(-c2cnc(N)nc2)nc1)c1noc(-c2ccc(I)c(Br)c2)n1 (centres unmarked) [Example 69, 5-(5-{2-[5-(3-bromo-4-iodophenyl)-1,2,4-oxadiazol-3-yl]-3-methylbutan-2-yl}pyridin-2-yl)pyrimidin-2-amine]	840	64.8	–
CC(C)C(C)(c1ccc(-c2cnc(N)nc2)nc1)c1noc(-c2cccnc2)n1 (centres unmarked) [Example 70, 5-(5-{3-methyl-2-[5-(pyridin-3-yl)-1,2,4-oxadiazol-3-yl]butan-2-yl}pyridin-2-yl)pyrimidin-2-amine]	240	12.4	–
CC(C)C(C)(c1ccc(-c2cnc(N)nc2)nc1)c1noc(-c2ccccc2)n1 (centres unmarked) [Example 71, 5-{5-[3-methyl-2-(5-phenyl-1,2,4-oxadiazol-3-yl)butan-2-yl]pyridin-2-yl}pyrimidin-2-amine]	840	8.1	–
Cc1ccc(-c2nc(C(C)(c3ccc(-c4cnc(N)nc4)nc3)C(C)C)no2)cn1 (centres unmarked) [Example 72, 5-(5-{3-methyl-2-[5-(6-methylpyridin-3-yl)-1,2,4-oxadiazol-3-yl]butan-2-yl}pyridin-2-yl)pyrimidin-2-amine]	440	26.4	–
CC(C)C(C)(c1ccc(-c2cnc(N)nc2)nc1)c1noc(-c2cn[nH]c2)n1 (centres unmarked) [Example 73, 5-(5-{3-methyl-2-[5-(1H-pyrazol-4-yl)-1,2,4-oxadiazol-3-yl]butan-2-yl}pyridin-2-yl)pyrimidin-2-amine]	110	3.9	–

Continued, values first:

IC50 [1] [nM]	IC50 [2] [nM]	inhibition at 1 µM ([2]; read-out: FLAP SPA inhibition at 1 uM) [%]	SMILES
220	3.1	–	CC(C)C(C)(c1ccc(-c2cnc(N)nc2)nc1)c1noc(-c2ccc(NCCO)nc2)n1 (centres unmarked) [Example 74, 2-{[5-(3-{2-[6-(2-aminopyrimidin-5-yl)pyridin-3-yl]-3-methylbutan-2-yl}-1,2,4-oxadiazol-5-yl)pyridin-2-yl]amino}ethanol]
52	32	–	COCCn1cc(-c2nc([C@@](C)(c3ccc(-c4cnc(N)nc4)nc3)C3CC3)no2)cn1 [Example 75, 5-{5-[(1R)-1-cyclopropyl-1-{5-[1-(2-methoxyethyl)-1H-pyrazol-4-yl]-1,2,4-oxadiazol-3-yl}ethyl]pyridin-2-yl}pyrimidin-2-amine]
2000	190	–	COCCn1cc(-c2nc([C@](C)(c3ccc(-c4cnc(N)nc4)nc3)C3CC3)no2)cn1 [Example 76, 5-{5-[(1S)-1-cyclopropyl-1-{5-[1-(2-methoxyethyl)-1H-pyrazol-4-yl]-1,2,4-oxadiazol-3-yl}ethyl]pyridin-2-yl}pyrimidin-2-amine]
15	0.14	–	CC(C)[C@](C)(c1ccc(-c2cnc(N)cn2)nc1)c1noc(-c2cnn(C)c2)n1 [Example 77, 5-(5-{(2R)-3-methyl-2-[5-(1-methyl-1H-pyrazol-4-yl)-1,2,4-oxadiazol-3-yl]butan-2-yl}pyridin-2-yl)pyrazin-2-amine]
29	8	–	C[C@@](c1ccc(-c2cnc(N)nc2)nc1)(c1noc(-c2cnn(C3COC3)c2)n1)C1CC1 [Example 78, 5-{5-[(1R)-1-cyclopropyl-1-{5-[1-(oxetan-3-yl)-1H-pyrazol-4-yl]-1,2,4-oxadiazol-3-yl}ethyl]pyridin-2-yl}pyrimidin-2-amine]
650	140	–	C[C@](c1ccc(-c2cnc(N)nc2)nc1)(c1noc(-c2cnn(C3COC3)c2)n1)C1CC1 [Example 79, 5-{5-[(1S)-1-cyclopropyl-1-{5-[1-(oxetan-3-yl)-1H-pyrazol-4-yl]-1,2,4-oxadiazol-3-yl}ethyl]pyridin-2-yl}pyrimidin-2-amine]
230	5.6	–	CNC(=O)Cn1cc(-c2nc(C(C)(c3ccc(-c4cnc(N)nc4)nc3)C(C)C)no2)cn1 (centres unmarked) [Example 80, 2-[4-(3-{2-[6-(2-aminopyrimidin-5-yl)pyridin-3-yl]-3-methylbutan-2-yl}-1,2,4-oxadiazol-5-yl)-1H-pyrazol-1-yl]-N-methylacetamide]
200	76	–	CN(C)C(=O)Cn1cc(-c2nc([C@@](C)(c3ccc(-c4cnc(N)nc4)nc3)C3CC3)no2)cn1 [Example 83, 2-[4-(3-{(1R)-1-[6-(2-aminopyrimidin-5-yl)pyridin-3-yl]-1-cyclopropylethyl}-1,2,4-oxadiazol-5-yl)-1H-pyrazol-1-yl]-N,N-dimethylacetamide]
2900	–	45	CN(C)C(=O)Cn1cc(-c2nc([C@](C)(c3ccc(-c4cnc(N)nc4)nc3)C3CC3)no2)cn1 [Example 84, 2-[4-(3-{(1S)-1-[6-(2-aminopyrimidin-5-yl)pyridin-3-yl]-1-cyclopropylethyl}-1,2,4-oxadiazol-5-yl)-1H-pyrazol-1-yl]-N,N-dimethylacetamide]
1900	350	–	CC(C)C(C)(c1ccc(-c2cnc(N)nc2)nc1)c1noc(-c2cn(CC(C)(C)O)cn2)n1 (centres unmarked) [Example 85, 1-[4-(3-{2-[6-(2-aminopyrimidin-5-yl)pyridin-3-yl]-3-methylbutan-2-yl}-1,2,4-oxadiazol-5-yl)-1H-imidazol-1-yl]-2-methylpropan-2-ol]
790	140	–	Cn1cc(-c2nc(C(C)(C)c3ccc(-c4cnc(N)nc4)nc3)no2)cn1 [Example 86, 5-(5-{2-[5-(1-methyl-1H-pyrazol-4-yl)-1,2,4-oxadiazol-3-yl]propan-2-yl}pyridin-2-yl)pyrimidin-2-amine]
> 5000	670	–	CC(C)(c1ccc(-c2cnc(N)nc2)nc1)c1noc(-c2cn[nH]c2)n1 [Example 87, 5-(5-{2-[5-(1H-pyrazol-4-yl)-1,2,4-oxadiazol-3-yl]propan-2-yl}pyridin-2-yl)pyrimidin-2-amine]
1500	370	–	CC(C)(O)Cn1cc(-c2nc(C(C)(C)c3ccc(-c4cnc(N)nc4)nc3)no2)cn1 [Example 88, 1-[4-(3-{2-[6-(2-aminopyrimidin-5-yl)pyridin-3-yl]propan-2-yl}-1,2,4-oxadiazol-5-yl)-1H-pyrazol-1-yl]-2-methylpropan-2-ol]
